From patent US7915448B2, “Substituted sulfonylaminoarylmethyl cyclopropanecarboxamide as VR1 receptor antagonists” (Pfizer Inc., priority 2005, dated 2011)

Columns and labels:
[1] = target: T1, human VR1 receptors (Homo sapiens, UniProt Q8NER1); assay: Human VR1 antagonist assay (Ca2+ imaging); format: cell-based; settings: cells expressing human VR1, fura-2 Ca2+ imaging, FDSS 6000; capsaicin (300 nM) or acid (pH5.8) stimulation, table does not say which
T1 construct: host or cells: cells highly expressing human VR1; cell type not specified
Outline: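 Human VR1-expressing cells loaded with 5 μM fura-2/AM for 1 h, resuspended at 3.75×10^5 cells/ml and preincubated 15 min at room temperature in the dark with compound. Stimulation by 300 nM capsaicin in KRH buffer pH 7.3, or by acid (HBSS/MES, final pH 5.8) from HBSS-HEPES pH 7.4; fluorescence (ex 340/380 nm, em 510-520 nm) monitored from 1 min before addition for 5 min.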

[2] = Half-life in Human Liver Microsomes (HLM); settings: human, human liver microsomes (HL101), pH 7.4
Protocol: Test compounds (1 μM) were incubated with 3.3 mM MgCl2 and 0.78 mg/mL HLM (HL101) in 100 mM potassium phosphate buffer (pH 7.4) at 37° C. on the 96-deep well plate. The reaction mixture was split into two groups, a non-P450 and a P450 group. NADPH was only added to the reaction mixture of the P450 group. An aliquot of samples of P450 group was collected at 0, 10, 30, and 60 min time point, where 0 min time point indicated the time when NADPH was added into the reaction mixture of P450 group. An aliquot of samples of non-P450 group was collected at −10 and 65 min time point. Collected aliquots were extracted with acetonitrile solution containing an internal standard. The precipitated protein was spun down in centrifuge (2000 rpm, 15 min). The compound concentration in supernatant was measured by LC/MS/MS system.
The half-life value was obtained by plotting the natural logarithm of the peak area ratio of compounds/internal standard versus time. The slope of the line of best fit through the points yields the rate of metabolism (k).

T1 sequence (Q8NER1 whole entry): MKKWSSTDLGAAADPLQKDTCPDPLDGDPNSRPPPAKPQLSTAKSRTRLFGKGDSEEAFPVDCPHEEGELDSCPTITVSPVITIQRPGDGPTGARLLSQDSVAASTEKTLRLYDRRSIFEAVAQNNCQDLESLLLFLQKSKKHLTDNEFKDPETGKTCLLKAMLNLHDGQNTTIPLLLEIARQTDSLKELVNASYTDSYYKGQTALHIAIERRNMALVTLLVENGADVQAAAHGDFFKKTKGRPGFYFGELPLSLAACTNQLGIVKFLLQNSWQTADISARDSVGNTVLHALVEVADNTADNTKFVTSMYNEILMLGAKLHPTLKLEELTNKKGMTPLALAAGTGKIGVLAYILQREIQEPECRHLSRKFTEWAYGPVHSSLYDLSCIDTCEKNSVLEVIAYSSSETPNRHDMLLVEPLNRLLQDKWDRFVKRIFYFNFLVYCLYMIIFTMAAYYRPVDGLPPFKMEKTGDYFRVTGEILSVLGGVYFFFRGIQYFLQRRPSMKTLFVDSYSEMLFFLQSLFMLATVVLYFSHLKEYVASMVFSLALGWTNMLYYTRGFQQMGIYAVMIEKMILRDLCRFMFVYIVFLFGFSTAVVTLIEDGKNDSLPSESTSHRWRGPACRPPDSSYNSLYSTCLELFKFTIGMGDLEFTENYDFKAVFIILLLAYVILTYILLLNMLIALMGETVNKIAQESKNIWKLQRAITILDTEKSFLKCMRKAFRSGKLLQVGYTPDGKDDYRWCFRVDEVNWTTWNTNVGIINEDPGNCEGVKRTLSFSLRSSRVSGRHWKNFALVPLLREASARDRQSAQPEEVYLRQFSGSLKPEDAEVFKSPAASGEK

| IC50 [1] [µM] | half-life at 1 μM [2] [min] | Compound |
| --- | --- | --- |
| 0.0207 | 41 | C[C@@H](NC(=O)[C@H]1C[C@]1(C)c1cc(F)c(C(C)(C)C)c(F)c1)c1ccc(NS(C)(=O)=O)cc1 [Example 43, 2-(4-tert-Butyl-3,5-difluorophenyl)-2-methyl-N-((1R)-1-{4-[(methylsulfonyl)amino]phenyl}ethyl)cyclopropanecarboxamide] |
| 0.00584 | 29 | C[C@@H](NC(=O)[C@H]1C[C@]1(C)c1cc(F)c(C(C)(C)C)c(F)c1)c1ccc(NS(C)(=O)=O)c(F)c1 [Example 45, 2-(4-tert-Butyl-3,5-difluorophenyl)-N-((1R)-1-{3-fluoro-4-[(methylsulfonyl)amino]phenyl}ethyl)-2-methylcyclopropanecarboxamide] |
| 0.0126 | 23 | Cc1cc([C@@H](C)NC(=O)[C@H]2C[C@@H]2c2ccc(C(F)(F)F)nc2N2CCCC2)ccc1NS(C)(=O)=O [Example 46, N-((1R)-1-{3-Methyl-4-[(methylsulfonyl)amino]phenyl}ethyl)-2-[2-pyrrolidin-1-yl-6-(trifluoromethyl)pyridin-3-yl]cyclopropanecarboxamide] |
| 0.203 | 21 | C[C@@H](NC(=O)[C@H]1C[C@@H]1c1ccc(C(C)(C)C(F)(F)F)cc1)c1ccc(NS(C)(=O)=O)c(CO)c1 [Example 48, N-((1R)-1-{3-(Hydroxymethyl)-4-[(methylsulfonyl)amino]phenyl}ethyl)-2-[4-(2,2,2-trifluoro-1,1-dimethylethyl)phenyl]cyclopropanecarboxamide] |
| 0.239 | 4 | C[C@@H](NC(=O)C1CC1c1ccc(C(C)(C)C)nc1N1CCCCC1)c1ccc(NS(C)(=O)=O)c(F)c1 (stereo partly drawn) [Example 50, 2-(6-tert-Butyl-2-piperidin-1-ylpyridin-3-yl)-N-((1R)-1-{3-fluoro-4-[(methylsulfonyl)amino]phenyl}ethyl)cyclopropanecarboxamide] |
| 0.0156 | 5 | Cc1cc([C@@H](C)NC(=O)C2CC2c2ccc(C(C)(C)C)nc2N2CCCC2)ccc1NS(C)(=O)=O (stereo partly drawn) [Example 51, 2-(6-tert-Butyl-2-pyrrolidin-1-ylpyridin-3-yl)-N-((1R)-1-{3-methyl-4-[(methylsulfonyl)amino]phenyl}ethyl)cyclopropanecarboxamide] |
| 0.234 | 96 | Cc1nc([C@@H](C)NC(=O)C2CC2(C)c2ccc(C(F)(F)F)cc2)ccc1NS(C)(=O)=O (stereo partly shown) [Example 54] |
| 0.00317 | > 120 | C[C@@H](NC(=O)[C@H]1C[C@]1(C)c1ccc(C(F)(F)F)cc1)c1cc(F)c(NS(C)(=O)=O)c(F)c1 [Example 61, (1S,2S)-N-((1R)-1-{3,5-Difluoro-4-[(methylsulfonyl)amino]phenyl}ethyl)-2-methyl-2-[4-(trifluoromethyl)phenyl]cyclopropanecarboxamide] |
| 0.00666 | 35.6 | COC1(c2ccc(C(F)(F)F)cc2)CC1C(=O)N[C@H](C)c1ccc(NS(C)(=O)=O)c(C)c1 (stereo partly drawn) [Example 63, N-((1R)-1-{3-Methyl-4-[(methylsulfonyl)amino]phenyl}ethyl)-2-(methyloxy)-2-[4-(trifluoromethyl)phenyl]cyclopropanecarboxamide] |
| 0.00564 | 95 | C[C@@H](NC(=O)C1CC1(C)c1ccc(C(F)(F)F)c(F)c1)c1ccc(NS(C)(=O)=O)c(F)c1 (stereo partly drawn) [Example 67, N-((1R)-1-{3-Fluoro-4-[(methylsulfonyl)amino]phenyl}ethyl)-2-[3-fluoro-4-(trifluoromethyl)phenyl]-2-methylcyclopropanecarboxamide] |
| 0.062 | 18 | Cc1cc([C@@H](C)NC(=O)C2CC2c2ccc(C(C)(C)C)cc2CO)ccc1NS(C)(=O)=O (stereo partly drawn) [Example 68, 2-[4-tert-Butyl-2-(hydroxymethyl)phenyl]-N-((1R)-1-{3-methyl-4-[(methylsulfonyl)amino]phenyl}ethyl)cyclopropanecarboxamide] |

Second part, the compound before the results:

| Compound | IC50 [1] [µM] | half-life at 1 μM [2] [min] |
| --- | --- | --- |
| Cc1cc([C@@H](C)NC(=O)[C@H]2C[C@]2(C)c2cc(F)c(C(C)(C)C)c(F)c2)ccc1NS(C)(=O)=O [Example 44, 2-(4-tert-Butyl-3,5-difluorophenyl)-2-methyl-N-((1R)-1-{3-methyl-4-[(methylsulfonyl)amino]phenyl}ethyl)cyclopropanecarboxamide] | 0.002 | 29 |
| C[C@@H](NC(=O)[C@H]1C[C@@H]1c1ccc(C(F)(F)F)nc1N1CCCC1)c1ccc(NS(C)(=O)=O)c(CO)c1 [Example 47, N-((1R)-1-{3-(Hydroxymethyl)-4-[(methylsulfonyl)amino]phenyl}ethyl)-2-[2-pyrrolidin-1-yl-6-(trifluoromethyl)pyridin-3-yl]cyclopropanecarboxamide] | 0.00764 | 11 |
| Cc1cc([C@@H](C)NC(=O)C2CC2c2ccc(C(C)(C)C)nc2N2CCCCC2)ccc1NS(C)(=O)=O (stereo partly drawn) [Example 49, 2-(6-tert-Butyl-2-piperidin-1-ylpyridin-3-yl)-N-((1R)-1-{3-methyl-4-[(methylsulfonyl)amino]phenyl}ethyl)cyclopropanecarboxamide] | 0.125 | 3 |
| Cc1cc([C@@H](C)NC(=O)C2CC2c2ccc(C(C)(C)C)nc2)ccc1NS(C)(=O)=O (stereo partly drawn) [Example 53, 2-[6-tert-Butylpyridin-3-yl]-N-((1R)-1-{3-methyl-4-[(methylsulfonyl)amino]phenyl}ethyl)cyclopropanecarboxamide] | 0.125 | 44 |
| Cc1cc([C@@H](C)NC(=O)C2CC2(CO)c2ccc(C(C)(C)C)cc2)ccc1NS(C)(=O)=O (stereo partly drawn) [Example 59, 2-[4-tert-Butylphenyl]-2-(hydroxymethyl)-N-((1R)-1-{3-methyl-4-[(methylsulfonyl)amino]phenyl}ethyl)cyclopropanecarboxamide] | 0.263 | 22 |
| C[C@@H](NC(=O)[C@H]1C[C@]1(C)c1ccc(C(F)(F)F)cc1)c1cc(F)c(NS(C)(=O)=O)cc1F [Example 60, (1S,2S)-N-((1R)-1-{2,5-Difluoro-4-[(methylsulfonyl)amino]phenyl}ethyl)-2-methyl-2-[4-(trifluoromethyl)phenyl]cyclopropanecarboxamide] | 0.0251 | > 120 |
| COC1(c2ccc(C(C)(C)C)cc2)CC1C(=O)N[C@H](C)c1ccc(NS(C)(=O)=O)c(C)c1 (stereo partly drawn) [Example 64, 2-[4-tert-Butylphenyl]-N-((1R)-1-{3-methyl-4-[(methylsulfonyl)amino]phenyl}ethyl)-2-(methyloxy)cyclopropanecarboxamide] | 0.00462 | 14 |
| Cc1cc([C@@H](C)NC(=O)C2CC2(C)c2ccc(C(F)(F)F)c(F)c2)ccc1NS(C)(=O)=O (stereo partly drawn) [Example 66, 2-[3-Fluoro-4-(trifluoromethyl)phenyl]-2-methyl-N-((1R)-1-{3-methyl-4-[(methylsulfonyl)amino]phenyl}ethyl)cyclopropanecarboxamide] | 0.000421 | 34 |
| C[C@@H](NC(=O)C1CC1(C)c1ccc(S(=O)(=O)C(F)(F)F)cc1)c1ccc(NS(C)(=O)=O)c(CO)c1 (stereo partly drawn) [Example 69, N-((1R)-1-{3-(Hydroxymethyl)-4-[(methylsulfonyl)amino]phenyl}ethyl)-2-methyl-2-{4-[(trifluoromethyl)sulfonyl]phenyl}cyclopropanecarboxamide] | 0.212 | 30 |
